This passage reports IC50 and Kd results from patent US20240025906A1 (NEURON23, INC., priority 2022, published 2024).

Test [1] deals with JAK1/TYK2 pSTAT5 (Tyr694/699) in THP-1 cell line. The test can be described thus: IFNa-stimulated JAK1/TYK2 pSTAT5 (Tyr694/699) inhibition cellular assay, AlphaLISA. It counts as cell-based. As to conditions: Homo sapiens; THP-1 cells, IFNa-stimulated, AlphaLISA (Assay B); read-out: Cellular_THP1_IFNa-pSTATS_TYK2. In outline: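 The readout is AlphaLISA signal at 615 nm for phospho-STAT5 in THP-1 lysates after IFNa stimulation (added at 100 ng/mL, 30 min, 37 °C). Cells had compound for 1 h beforehand across eight 6-fold concentrations up to 10000 nM final. IC50s are 4PL fits with bottom and Hill slope constrained.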
(In general: Bead proximity is the source of the signal in Alpha formats.)

The target in test [2] is T1, TYK2 JH2 (Homo sapiens, UniProt P29597).
T1 construct: purchased DiscoverX (KINOMEscan KdELECT service); host or cells: E. coli BL21-derived (T7 phage display) or HEK-293
T1 sequence (P29597 589-875 limits assumed): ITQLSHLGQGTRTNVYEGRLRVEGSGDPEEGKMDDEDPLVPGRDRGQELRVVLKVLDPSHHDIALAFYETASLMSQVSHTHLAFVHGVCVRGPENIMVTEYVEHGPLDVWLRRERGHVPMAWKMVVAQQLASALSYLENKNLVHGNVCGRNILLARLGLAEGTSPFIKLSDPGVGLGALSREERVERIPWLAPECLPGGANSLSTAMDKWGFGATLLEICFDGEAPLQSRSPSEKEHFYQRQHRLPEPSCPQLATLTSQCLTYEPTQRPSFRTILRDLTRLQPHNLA
Put plainly: TYK2 JH2 binding assay (KINOMEscan KdELECT competitive binding). As to conditions: TYK2 JH2 domain, DiscoverX KINOMEscan KdELECT (Assay A); read-out: Biochemical TYK2_DiscoverX_JH2_BND_Kd. In outline: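 JH2-domain fragment, expressed as T7 phage tag in BL21-derived E. coli or DNA-tagged from HEK-293, competed with test compound against bead-immobilized biotinylated ligand in binding buffer (0.9% DMSO). 1 h shaking at room temperature; bound kinase eluted with 0.5 μM free ligand and quantified by qPCR. Kd from 11-point 3-fold dilutions.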

Bounds are passed on as bounds.

As for `CNc1ncc(-c2nc3ccncc3o2)c2cc(NC(=O)C3CC3)ncc12` [Example 357, N-(8-(methylamino)-5-(oxazolo[5,4-c]pyridin-2-yl)-2,7-naphthyridin-3-yl)cyclopropanecarboxamide], the IC50 in test [1] was above 500 nM. For the same compound, the Kd in test [2] is at most 100 nM.

Regarding `CNc1ncc(-c2nc3ncccc3o2)c2cc(NC(=O)C3CC3)ncc12` [Example 358, N-(8-(methylamino)-5-(oxazolo[4,5-b]pyridin-2-yl)-2,7-naphthyridin-3-yl)cyclopropanecarboxamide], the IC50 in test [1] is at most 500 nM. Further, in test [2], the Kd is at most 100 nM.

For `CNc1ncc(-c2nc3cc(C4CCNCC4)ccc3o2)c2cc(NC(=O)C3CC3)ncc12` [Example 359, N-(8-(methylamino)-5-(5-(piperidin-4-yl)benzo[d]oxazol-2-yl)-2,7-naphthyridin-3-yl)cyclopropanecarboxamide 2,2,2-trifluoroacetate], in test [1], the IC50 is at most 500 nM. For the same compound, the Kd in test [2] is at most 100 nM.

Take `CNc1ncc(-c2nc3cc(C4CCN(C5COC5)CC4)ccc3o2)c2cc(NC(=O)C3CC3)ncc12` [Example 360, N-(8-(methylamino)-5-(5-(1-(oxetan-3-yl)piperidin-4-yl)benzo[d]oxazol-2-yl)-2,7-naphthyridin-3-yl)cyclopropanecarboxamide]: the IC50 in test [1] is at most 500 nM. Also, the Kd in test [2] is at most 100 nM.

As to `CNc1ncc(-c2nc3cc(C4CCN(C)CC4)ccc3o2)c2cc(NC(=O)C3CC3)ncc12` [Example 361, N-(8-(methylamino)-5-(5-(1-methylpiperidin-4-yl)benzo[d]oxazol-2-yl)-2,7-naphthyridin-3-yl)cyclopropanecarboxamide], in test [1], the IC50 is at most 500 nM. For the same compound, the Kd in test [2] is at most 100 nM.

For the compound `[2H]C([2H])([2H])Nc1ncc(-c2nc3cc(OC)ccc3o2)c2cc(NC(=O)C3CC3)ncc12` [Example 362, N-(5-(5-methoxybenzo[d]oxazol-2-yl)-8-((methyl-d3)amino)-2,7-naphthyridin-3-yl)cyclopropanecarboxamide], the IC50 in test [1] is at most 500 nM. In test [2], the Kd was at most 100 nM.

As for `[2H]C([2H])([2H])Nc1ncc(-c2nc3c(OC)cccc3o2)c2cc(NC(=O)C3CC3)ncc12` [Example 363, N-(5-(4-methoxybenzo[d]oxazol-2-yl)-8-((methyl-d3)amino)-2,7-naphthyridin-3-yl)cyclopropanecarboxamide], the IC50 in test [1] is at most 500 nM. Moreover, the Kd in test [2] is at most 100 nM.

For the compound `[2H]C([2H])([2H])Nc1ncc(-c2nc3cc(N4CCOCC4)ccc3o2)c2cc(NC(=O)C3CC3)ncc12` [Example 364, N-(8-((methyl-d3)amino)-5-(5-morpholinobenzo[d]oxazol-2-yl)-2,7-naphthyridin-3-yl)cyclopropanecarboxamide], the IC50 in test [1] is at most 500 nM. Further, in test [2], the Kd was at most 100 nM.

On to `[2H]C([2H])([2H])Nc1ncc(-c2nc3cc(OC([2H])([2H])[2H])ccc3o2)c2cc(NC(=O)C3CC3)ncc12` [Example 365, N-(5-(5-(methoxy-d3)benzo[d]oxazol-2-yl)-8-((methyl-d3)amino)-2,7-naphthyridin-3-yl)cyclopropanecarboxamide], for which, in test [1], the IC50 is at most 500 nM. In test [2], the Kd is at most 100 nM.

On to `CCNc1ncc(-c2nc3cc(N4CCO[C@@H](C)C4)ccc3o2)c2cc(NC(=O)C3CC3)ncc12` [Example 366, (S)—N-(8-(ethylamino)-5-(5-(2-methylmorpholino)benzo[d]oxazol-2-yl)-2,7-naphthyridin-3-yl)cyclopropanecarboxamide], for which the IC50 in test [1] is at most 500 nM. Moreover, in test [2], the Kd was at most 100 nM.

As for `COc1ccc2oc(-c3cnc(NC4CC4)c4cnc(NC(=O)C5CC5)cc34)nc2c1` [Example 367, N-(8-(cyclopropylamino)-5-(5-methoxybenzo[d]oxazol-2-yl)-2,7-naphthyridin-3-yl)cyclopropanecarboxamide], in test [1], the IC50 was at most 500 nM. In test [2], the Kd was at most 100 nM.

Consider `C[C@H]1CN(c2ccc3oc(-c4cnc(N)c5cnc(NC(=O)C6CC6)cc45)nc3c2)CCO1` [Example 368, (S)—N-(8-amino-5-(5-(2-methylmorpholino)benzo[d]oxazol-2-yl)-2,7-naphthyridin-3-yl)cyclopropanecarboxamide], for which the IC50 in test [1] is at most 500 nM. In addition, the Kd in test [2] was at most 100 nM.

On to `COc1ccc2oc(-c3cnc(N)c4cnc(NC(=O)C5CC5)cc34)nc2c1` [Example 369, N-(8-amino-5-(5-methoxybenzo[d]oxazol-2-yl)-2,7-naphthyridin-3-yl)cyclopropanecarboxamide], for which, in test [1], the IC50 is at most 500 nM. Also, the Kd in test [2] was at most 100 nM.

`COc1ccc2oc(-c3cnc(NCC(F)F)c4cnc(NC(=O)C5CC5)cc34)nc2c1` [Example 370, N-(8-((2,2-difluoroethyl)amino)-5-(5-methoxybenzo[d]oxazol-2-yl)-2,7-naphthyridin-3-yl)cyclopropanecarboxamide]: in test [1], the IC50 was at most 500 nM. Also, the Kd in test [2] was at most 100 nM.

In the case of `O=C(Nc1cc2c(-c3nc4ccccc4o3)cnc(O)c2cn1)C1CC1` [Example 371, N-(5-(benzo[d]oxazol-2-yl)-8-hydroxy-2,7-naphthyridin-3-yl)cyclopropanecarboxamide], the IC50 in test [1] was above 500 nM. The Kd in test [2] was at most 100 nM.

For `CNc1ncc(-c2nc3cc(OC)ccc3o2)c2cc(Nc3ccccn3)ncc12` [Example 372, 4-(5-methoxybenzo[d]oxazol-2-yl)-N^1-methyl-N^6-(pyridin-2-yl)-2,7-naphthyridine-1,6-diamine], the IC50 in test [1] was at most 500 nM. The Kd in test [2] is at most 100 nM.

As to `CNc1ncc(-c2nc3cc(OC)ccc3o2)c2cc(Nc3ccc(F)cn3)ncc12` [Example 374, N^6-(5-fluoropyridin-2-y1)-4-(5-methoxybenzo[d]oxazol-2-yl)-N^1-methyl-2,7-naphthyridine-1,6-diamine], in test [1], the IC50 is above 500 nM. Besides, the Kd in test [2] is at most 100 nM.

Turning to `CNc1ncc(-c2nc3cc(OC)ccc3o2)c2cc(Nc3ccc(C(C)(C)O)cn3)ncc12` [Example 375, 2-(6-((5-(5-methoxybenzo[d]oxazol-2-y1)-8-(methylamino)-2,7-naphthyridin-3-yl)amino)pyridin-3-yl)propan-2-ol], the IC50 in test [1] is at most 500 nM. Besides, the Kd in test [2] is at most 100 nM.

As for `CNc1ncc(-c2nc3cc(OC)ccc3o2)c2cc(Nc3cc(C)n(C)n3)ncc12` [Example 376, N^6-(1,5-dimethyl-1H-pyrazol-3-yl)-4-(5-methoxybenzo[d]oxazol-2-yl)-N^1-methyl-2,7-naphthyridine-1,6-diamine], in test [1], the IC50 is at most 500 nM. In addition, the Kd in test [2] was at most 100 nM.

Turning to `CNc1ncc(-c2nc3cc(OC)ccc3o2)c2cc(Nc3cc(C)nc(C)n3)ncc12` [Example 377, N^6-(2,6-dimethylpyrimidin-4-yl)-4-(5-methoxybenzo[d]oxazol-2-yl)-N^1-methyl-2,7-naphthyridine-1,6-diamine], in test [1], the IC50 is at most 500 nM. Moreover, in test [2], the Kd is at most 100 nM.

On to `CNc1ncc(-c2nc3cc(OC)ccc3o2)c2cc(Nc3ccc(OC)cn3)ncc12` [Example 378, 4-(5-methoxybenzo[d]oxazol-2-yl)-N^6-(5-methoxypyridin-2-yl)-N^1-methyl-2,7-naphthyridine-1,6-diamine], for which the IC50 in test [1] was at most 500 nM. The Kd in test [2] was at most 100 nM.

With `CNc1ncc(-c2nc3cc(OC)ccc3o2)c2cc(Nc3cccc(OC)n3)ncc12` [Example 379, 4-(5-methoxybenzo[d]oxazol-2-yl)-N^6-(6-methoxypyridin-2-yl)-N^1.methyl-2,7-naphthyridine-1,6-diamine], the IC50 in test [1] was at most 500 nM. Also, the Kd in test [2] was at most 100 nM.

For the compound `CNc1ncc(-c2nc3cc(OC)ccc3o2)c2cc(Nc3ccc(N4CCOCC4)cn3)ncc12` [Example 380, 4-(5-methoxybenzo[d]oxazol-2-yl)-N^1-methyl-N^6-(5-morpholinopyridin-2-yl)-2,7-naphthyridine-1,6-diamine], in test [1], the IC50 is at most 500 nM. In addition, the Kd in test [2] is at most 100 nM.

Regarding `CNc1ncc(-c2nc3cc(OC)ccc3o2)c2cc(NC(=O)C3(F)CC3)ncc12` [Example 381, 1-fluoro-N-(5-(5-methoxybenzo[d]oxazol-2-yl)-8-(methylamino)-2,7-naphthyridin-3-yl)cyclopropane-1-carboxamide], the IC50 in test [1] was above 500 nM. In test [2], the Kd was at most 100 nM.

`CNc1ncc(-c2nc3cc(OC)ccc3o2)c2cc(NC(=O)[C@H]3C[C@H]3C)ncc12` [Example 384, (1S,2R)-N-(5-(5-methoxybenzo[d]oxazol-2-yl)-8-(methylamino)-2,7-naphthyridin-3-y1)-2-methylcyclopropane-1-carboxamide]: the IC50 in test [1] was at most 500 nM. Moreover, the Kd in test [2] was at most 100 nM.

Consider `CNc1ncc(-c2nc3cc(OC)ccc3o2)c2cc(NC(=O)CC(F)(F)F)ncc12` [Example 386, 3,3,3-trifluoro-N-(5-(5-methoxybenzo[d]oxazol-2-yl)-8-(methylamino)-2,7-naphthyridin-3-yl)propanamide], for which, in test [1], the IC50 is at most 500 nM. Moreover, the Kd in test [2] was at most 100 nM.

For the compound `CNc1ncc(-c2nc3cc(OC)ccc3o2)c2cc(NC(=O)[C@H]3C[C@H]3F)ncc12` [Example 387, (1R,2R)-2-fluoro-N-(5-(5-methoxybenzo[d]oxazol-2-y1)-8-(methylamino)-2,7-naphthyridin-3-yl)cyclopropane-1-carboxamide], in test [1], the IC50 is at most 500 nM. In addition, the Kd in test [2] was at most 100 nM.
